B1: GDNF: glial-cell-line-derived neurotrophic factor, a trophic factor (protein, UniProt P39905 78-211, looked up)
Glial cell line-derived …: SPDKQMAVLPRRERNRQAAAANPENSRGKGRRGQRGKNRGCVLTAIHLNVTDLGLGYETKEELIFRYCSGSCDAAETTYDKILKNLSRNRRLVSDKVGQACCRPIAFDDDLSFLDDNLVYHILRKHSAKRCGCI

Key:
Ret = Ret immunolabeling in the SNc of 6OHDA-lesioned rats; type: in vivo, Sprague-Dawley rats; details: 1 mg/kg/day subcutaneously for 28 days starting 3 days after bilateral 6OHDA infusion into the SNc
Description: Sprague-Dawley rats received saline infusions (denoted sham) or bilateral infusions of 6OHDA into the SNc (denoted lesion) as described (McFarland et al., 2013). […] A), RET positive cells expressed as % of sham; B), sham; C), vehicle treated lesioned animals; D) bexarotene treated lesioned animals. Shown are representative images of substantia nigral tissue immunolabeled for Ret.

[1] = system: primary cultures of dopaminergic neurons previously exposed to MPP+; experiment: TH positive neurons in primary cultures of dopaminergic neurons after MPP+ injury
[2] = system: primary cultures of dopaminergic neurons previously exposed to alpha-synuclein (α-syn); experiment: TH positive neurons in primary cultures of dopaminergic neurons exposed to alpha-synuclein; type: cell-based, rat; details: for increase in TH positive neurons over the α-synuclein alone condition: α-synuclein peptide 250 nM, 96 h; for survival of TH positive neurons compared to the control condition: neurons treated with alpha-synuclein
Protocol: Cultured neurons were treated as described above. On day 7, the media was removed, and fresh media with the α-synuclein peptide (250 nM) was added. On day 8, the media was removed, and fresh media with the α-synuclein peptide (250 nM) and the indicated drug treatments was added.
Cultured neurons were treated with alpha-synuclein as described above.

Row | Molecule | RET expression relative to sham animals (Ret) | RET positive cells in the SNc (expressed as % of sham) (Ret; vs Lesion/Veh, p<0.05) | increase in TH positive neurons over the MPP alone condition ([1]; 5 nM bexarotene alone) [%] | % of TH positive cells compared to cells treated with MPP+ alone ([1]; 0.3, 1 or 3 nM bexarotene alone, 24 h MPP+ injury (4 μM), drugs for 48 h) | increase in TH positive neurons over the α-synuclein alone condition ([2]; bexarotene alone 10 nM) [%] | survival of TH positive neurons compared to the control condition ([2]; bexarotene alone 100 nM) [%] | increase in TH positive neurons over the MPP alone condition ([1]; 2 ng/ml GDNF alone) [%] | increase in TH positive neurons over the α-synuclein alone condition ([2]; GDNF alone 12.5 ng/ml) [%] | survival of TH positive neurons compared to the control condition ([2]; GDNF alone 100 ng/ml) [%]
1 | C=C(c1ccc(C(=O)O)cc1)c1cc2c(cc1C)C(C)(C)CCC2(C)C [bexarotene, Bexarotene] | increased RET expression above the levels in the sham animals | reversed the loss of RET positive cells | 9 | not able to significantly increase | 8 | 88 | – | – | –
2 | B1 | – | – | – | – | – | – | 3 | 8 | 96

Source: patent publication US20160263189A1, “TREATMENT OF A NEURODEGENERATIVE DISEASE OR DISORDER” (ACADIA Pharmaceuticals Inc., priority 2013, published 2016)
